Experimental findings from patent US8895717B2, “Delivery of siRNA by neutral lipid compositions” (The Board of Regents of the University of Texas System, priority 2005, dated 2014) are described below.

One data set relates to SKOV3 cells. The data set can be described thus: TUNEL apoptosis assay, SKOV3. In kind it is cell-based, human. To be noted: sensitive and resistant cell lines. How it is done: Terminal deoxynucleotidyl transferase-mediated nick end labeling-positive cells were detected using Dead End Fluorometric terminal deoxynucleotidyl transferase-mediated nick end labeling system (APO-DIRECT, BD Biosciences/PharMingen, San Diego, Calif.) according to the manufacturer's instructions. […] Cells were fixed with 4% paraformaldehyde solution for 25 minutes on ice. Intracellular DNA fragments were then labeled by exposing cells to fluorescein-12-dUTP, treated with propidium iodide and RNaseA solution, and analyzed by flow cytometry (EPICS XL, Beckman Coulter, Miami, Fla.). The percentages of apoptotic cells were averaged over three consecutive experiments.

Another data set relates to SKOV3ip1 cells. The data set can be described thus: In vivo therapy with DOPC-FAK siRNA, SKOV3ip1 model. On the set-up: species or system nude mice. Particulars: for Incidence (%) / No. Nodules: siRNA in DOPC twice weekly, docetaxel 50 μg weekly. As for the experimental part: (§1) siRNA for in vivo delivery was incorporated into the phospholipid 1,2-dioleoyl-sn-glycero-3-phosphatidylcholine (DOPC). DOPC and siRNA were mixed in the presence of excess tertiary-butanol at a ratio of […], as previously described (Landen et al., 2005). Tween-20 was added to the mixture at a ratio of 1:19. The mixture was vortexed, frozen in an acetone/dry ice bath, and lyophilized. Before in vivo administration, this preparation was hydrated with normal (0.9%) saline at a concentration of 15 μg/ml to achieve the desired dose of 150-200 μl per injection. To estimate the quantity of siRNA not taken up by liposomes free siRNA was separated from liposomes by using filter units with a 30,000 nominal molecular weight limit (Millipore Corp, Billerica, Mass.). The liposomal suspension was added to the filters and centrifuged at 5,000 g for 40 min at room temperature. Fractions were collected, the material trapped in the filter was reconstituted with 0.9% saline, and the amount of siRNA in the collected fraction and eluent were measured by spectrophotometry.
(§2) To produce tumors, SKOV3ip1, Hey A8-MDR cells (1×10^6 cells/0.2 ml of HBSS) and Hey A8 cells (2.5×10^5 cells/0.2 ml of HBSS) were injected interperitoneally (i.p.) into the mice. For in vivo injections, cells were trypsinized and centrifuged at 1000 rpm for 7 minutes at 4° C., washed twice with PBS and reconstituted in serum-free Hank's balanced salt solution (HBSS, Life Technologies, Carlsbad, Calif.). Only single-cell suspensions with >95% viability, as determined by trypan blue exclusion, were used for the in vivo injections. Mice (n=10 per group) were monitored for adverse effects of therapy and were sacrificed on day 35 (SKOV3ip1) or day 28 (HeyA8 or HeyA8-MDR) or when any of the mice began to appear moribund. Mouse weight, tumor weight, and tumor distribution were recorded. Tissue specimens were snap frozen for lysate preparation, fixed in formalin for paraffin embedding or frozen on OCT compound (Miles, Inc., Elkhart, Ind.) for frozen slide preparation.
(§3) Based on the results of preliminary dose-response studies, a series of three separate therapy studies were initiated using the optimal FAK siRNA dosage. Tumor cells were injected i.p. and 7 days later, the mice were randomly assigned to five treatment groups: empty liposome twice weekly, non-specific control […] siRNA (3 μg) twice weekly, control FAK siRNA (3 μg) twice weekly in combination with 50 μg docetaxel weekly, FAK siRNA twice weekly and FAK siRNA (3 μg) twice weekly in addition to 50 μg docetaxel weekly.
(§4) The SKOV3ip1 or HeyA8 ovarian cancer cells were implanted into the peritoneal cavity of athymic nude mice for experiments designed to test the therapeutic potential of FAK-targeted inhibition of gene expression. Seven days later, therapy was started according to the following five treatment groups: 1) empty liposomes; 2) non-specific siRNA-DOPC; 3) docetaxel plus non-specific siRNA-DOPC; 4) FAK targeted siRNA-DOPC; and 5) docetaxel plus FAK-targeted siRNA-DOPC. The animals were sacrificed after 4 weeks of therapy and a necropsy was performed. The data for these therapies' effects on SKOV3ip1 and HeyA8 are summarized in FIGS. 6A and 6B, respectively. […] Treatment with FAK siRNA alone or docetaxel plus control siRNA were effective in inhibiting tumor growth (54 to 74%) in both cell lines compared with control (FIG. 13).

Data set [1] has as its system HeyA8 cells. The data set can be described thus: In vivo therapy with DOPC-FAK siRNA, HeyA8 model. On the set-up: species or system nude mice. Particulars: for Incidence (%) / No. Nodules: siRNA in DOPC twice weekly, docetaxel 50 μg weekly. As for the experimental part:
as §1, §2, §3, §4

Data set [2] has as its system HeyA8 cells. The data set can be described thus: Cytotoxicity assay (MTT), HeyA8. The class given is cell-based, human. To be noted: HeyA8; siRNA 48 hours before docetaxel; at 50% cytotoxicity. How it is done: (§5) The medium was exchanged after 48 hours with increasing concentrations of docetaxel (obtained from Aventis Pharma, Bridgewater, N.J.) dissolved in ethanol (final concentration range, 0.1-10,000 nmol/L prepared in medium) or cisplatin (purchased from LKT Laboratories, Inc., St. Paul, Minn.) dissolved in water. After a 96-hour incubation, 50 μL of 0.15% 3-(4,5-dimethylthiazol-2-yl)-2,5-diphenyltetrazolium bromide was added to each well and incubated for 2 hours. The supernatant was removed, and cells were dissolved in 100 μL DMSO. The absorbance at 570 nm was recorded using a FALCON microplate reader (Becton Dickinson Labware, Bedford, Mass.), and cell survival expressed as a percent increase or decrease above control conditions, after subtracting blank A570 readings. The IC50 concentration was determined by finding the A570 reading midpoint between maximal and minimal readings and finding the chemotherapy concentration that intersects the growth curve at that A570 reading.

A further data set relates to SKOV3-TR cells. The data set can be described thus: Cytotoxicity assay (MTT), SKOV3-TR. Particulars: SKOV3-TR; siRNA 48 hours before docetaxel. In kind it is cell-based, human. As for the experimental part:
as §5

Data set [3] deals with SKOV3-TR and HeyA8-MDR cells. Briefly: TUNEL apoptosis assay, taxane-resistant cells. Particulars: FAK siRNA with or without docetaxel. The class given is cell-based, human. As for the experimental part: Terminal deoxynucleotidyl transferase-mediated nick end labeling-positive cells were detected using Dead End Fluorometric terminal deoxynucleotidyl transferase-mediated nick end labeling system (APO-DIRECT, BD Biosciences/PharMingen, San Diego, Calif.) according to the manufacturer's instructions. Briefly, ovarian cancer cells in culture were treated with varying concentrations of docetaxel and harvested after 12, 24, 48, or 96 hours. Cells were fixed with 4% paraformaldehyde solution for 25 minutes on ice. Intracellular DNA fragments were then labeled by exposing cells to fluorescein-12-dUTP, treated with propidium iodide and RNaseA solution, and analyzed by flow cytometry (EPICS XL, Beckman Coulter, Miami, Fla.). The percentages of apoptotic cells were averaged over three consecutive experiments.

d = 2'-deoxy (DNA); r = 2'-OH (RNA)

For “control siRNA: sense r(UUUUCCGAACGUGUCACGU)dTT, antisense r(ACGUGACACGUUCGGAGAA)dTT, no homology with human mRNA; in vivo in DOPC (sense UUUUCCGAACGUGUCACGUTT; antisense ACGUGACACGUUCGGAGAATT; sugars from the 5' end r19 d2, backbone not given here)”, in the data set with SKOV3 cells, the “apoptosis in combination with docetaxel” value is on record as “did not enhance apoptosis in combination with docetaxel”. Further, in the data set on SKOV3ip1 cells, the “efficacy compared with empty liposomes” value is on record as “not effective against SKOV3ip1 tumors”, the “Incidence (%)” value turned out to be 100% and the “No. Nodules” value was 15. In the data set on HeyA8 cells [1], the “reduction of tumors compared with empty liposomes” value is reported as “about 39%”, the “Incidence (%)” value is on record as 100% and the “No. Nodules” value was 4.0.

Turning to “FAK siRNA: sense r(CCACCUGGGCCAGUAUUAU)d(TT), antisense r(AUAAUACUGGCCCAGGUGG)d(TT); for in vivo delivery incorporated into DOPC (sense CCACCUGGGCCAGUAUUAUTT; antisense AUAAUACUGGCCCAGGUGGTT; sugars from the 5' end r19 d2, backbone not given here)”, in the data set with HeyA8 cells [2], the “fold greater docetaxel cytotoxicity after FAK down-regulation” value is given as 8 fold. In addition, in the data set with SKOV3-TR cells, the “fold increase in sensitivity to docetaxel” value is 4.8 fold. In addition, the apoptosis entry in data set [3] is recorded as “neither agent alone induced much apoptosis”. Also, in the data set on SKOV3ip1 cells, the “Incidence (%)” value stood at 70% and the “No. Nodules” value turned out to be 3.7. Besides, in the data set on HeyA8 cells [1], the “Incidence (%)” value worked out at 70% and the “No. Nodules” value amounted to 1.7.
